test system: LA2167-ZIS zingiberene synthase; assay: Recombinant LA2167-ZIS enzyme activity assay, soluble protein from E. coli BL21 plus isoprenoid diphosphate substrate, headspace SPME GC-MS; format: biochemical, Solanum habrochaites; conditions: 10 μM substrate, 2 μg soluble protein, 30 min at 30° C., GC-MS extracted ion 93
Description: The synthetic gene was excised from the pUC57 cloning vector by digestion with BamHI and SalI and ligated into the pHIS8 vector previously linearized by digestion with the same enzymes. Recombinant clones were transformed into E. coli BL21 cells. A 5-mL log-phase culture of E. coli BL21 cells containing the expression vector was induced by addition of IPTG to a final concentration of 0.1 mM. The induced cells were incubated with agitation at 25° C. for 16 h, and then harvested by centrifugation at 10,000 g for 15 min. The cell pellet was resuspended in 1 mL extraction buffer (50 mM HEPES pH 8, 5% glycerol, 100 mM KCl, 7.5 mM MgCl2 containing 1 mM dithiothreitol (DTT)) prior to sonication. Soluble proteins were harvested after centrifugation at 10,000 g for 20 min. The supernatant was used for subsequent enzyme assays. Two micrograms of soluble protein were mixed with 10 μM of substrate (GPP, NPP, EE-FPP or 2Z, 6Z-FPP (Echelon Biosciences Inc., Salt Lake City, Utah)) in a 2-mL glass vial. Reactions were allowed to proceed for 30 min at 30° C., and the glass vial headspace was collected with a 65 μm polydimethylsiloxane-divinylbenzene solid-phase microextraction fiber (Supelco, Bellefonte, Pa.). After 5 min of exposure at 42° C., the SPME fiber was retracted and transferred to the GC injector port for desorption at 200° C. onto the GC column for 3 min. The terpenes were separated on a DB5 column (10 m length, inner diameter and 0.25 um). The GC-MS analysis was performed as described previously […] et al. (Plant Physiol 153, 1212-1223 (2010)).

Row | Compound | Products synthesized by LA2167-ZIS from the supplied substrate
1 | CC(C)=CCC/C(C)=C\CC/C(C)=C\COP(=O)(O)OP(=O)(O)O [2Z,6Z-farnesyl diphosphate, (2Z,6Z)-farnesyl diphosphate, reference compound] | zingiberene peak at about 4.65 is only observed
2 | CC(C)=CCC/C(C)=C/COP(=O)(O)OP(=O)(O)O [geranyl diphosphate, reference compound] | failed to synthesize any products
3 | CC(C)=CCC/C(C)=C\COP(=O)(O)OP(=O)(O)O [neryl diphosphate, reference compound] | failed to synthesize any products

same assay, conditions: substrate 2Z,6Z-Farnesyl diphosphate; SEQ ID NO:3 in pHIS8, E. coli BL21 DE3; GC-MS

Row | Compound | Peak Area % of products synthesized by recombinant LA2167-ZIS [%]
4 | CC(C)=CCCC(C)c1ccc(C)cc1 (stereo not drawn) [AR-curcumene] | 0.986
5 | C=C(CCC=C(C)C)[C@@H]1CC=C(C)CC1 [Bisabolene beta] | 0.107
6 | C=C(C)C(CO)C/C=C(/C)CCC=C(C)C (stereo not drawn) [Sesquilavandulol <Z>] | 0.228
7 | C=C1C=CC(C(C)CCC=C(C)C)CC1 (stereo not drawn) [Sesquiphellandrene beta] | 0.567
8 | bergamotene | 0.273
9 | zingiberene | 97.839

From US8952221B2, “Enzymes that synthesize zingiberene” (Board of Trustees of Michigan State University, priority 2011, dated 2015)
